Source: patent US6723680B2, “Composition for regulation of gametophytic self-incompatibility, control method of gametophytic self-incompatibility of a plant and the plant self-pollinated by using said control method” (Istech Co., Ltd., priority 2000, dated 2004)
Read-outs that look alike come from different tables or passages of the source.

Assays:
Format in all cases: in vivo
[1] = tested on: wild-type tomato; assay: Fruition rate of wild-type tomato according to blooming period of treatment; conditions: 1 mM
Protocol: To test the effect of a style-specific RNase inhibitor in a practical cultivating environment, the style-specific RNase of the present invention was treated to the wild-type tomato that was cultivated in a greenhouse for research (located in Taegu Catholic University, Kyungsan city, Kyungsangpukdo, Republic of korea). In the present invention, the experiment was performed under the environmental condition that can keep the wild-type tomato, a representative plant having gametophytic self-incompatibility, a single species genetically.
To determine the treatment period of a style-specific RNase inhibitor, the inhibitor was treated at the early blooming period (budding formation period˜prior to fill blooming), the middle blooming period (full blooming) and the late blooming period (1 day after full blooming˜falling period of petal) respectively. The inhibitors, ZnSO4 and CuSO4 were then added with 1 mM (about 288 ppm) and 1 mM (about 250 ppm) respectively at 9˜11 a.m., when pollination of plant occurs most actively. Fruition rate was investigated, and the results of 4 times repeated experiments for 25 blooming periods (reproductive organ containing a stamen, a stigma, a petal, etc.) in each experiment were shown in Table 3 with the statistic value.

[2] = tested on: Fuji apple; assay: Fruition rate of Fuji apple according to blooming period of treatment; conditions: 1 mM with siloxane spreader 0.0335%
Protocol: To test the effect of a style-specific RNase inhibitor of the present invention in a practical cultivating environment, the style-specific RNase of the present invention was treated to Fuji apple that was cultivated in a greenhouse for research (located in Cheongsong-gun, Kyungsangpukdo, Republic of Korea). In the present invention, the experiment was performed under the environmental condition that can keep the Fuji apple, a representative plant having gametophytic self-incompatibility, a single species genetically. To determine the treatment period of a style-specific RNase inhibitor, the inhibitor was treated at the early blooming period (budding formation period˜prior to full blooming), the middle blooming period (full blooming) and the late blooming period (1 day after full blooming˜falling period of petal) respectively. A composition, which was manufactured by mixing the spreader of siloxane class (brand name: silhouette, Dongbu precision chemical company, Korea) with the inhibitor to the concentration of 0.0335%, was treated under the same condition of the Example 5-1, and the results were shown in Table 5.

[3] = tested on: Fuji apple; conditions: for Fruition rate: siloxane spreader 0.0335%, 4 days before full blooming; for concentration in which harmful effect of a medicine occurred: in vivo
Protocol: To investigate the fruition rate and harmful effect of a medicine according to the concentration of style-specific RNase inhibitors, ZnSO4 and CuSO4, style-specific RNase inhibitors of the present invention, were treated to Fuji apple with various concentration in 4 days before full blooming.
Furthermore, to maximize the efficiency of the style-specific RNase inhibitor of the present invention as fruition control agents, ZnSO4 or CuSO4 was mixed with the spreader of siloxane class (brand name silhouette, Dongbu precision chemical company, Korea) at 0.0335%, and treated to the Fuji apple.

[4] = tested on: wild-type tomato and Fuji apple; conditions: for the highest concentration not showing harmful effects of a medicine: in vivo; for the lowest concentration showing inhibiting effect: treated at the early blooming period
Protocol: Moreover, to investigate preferable concentration of treatment of the regulation composition for gametophytic self-incompatibility of the present invention, […] ppm CuSO4 and ZnSO4 were treated to wild-type tomato and Fuji apple at the early blooming period and the harmful effects of a medicine and fruition rates were investigated (see FIGS. 6 and 7). Since absorption rate of the regulation composition for gametophytic self-incompatibility of the present invention can be increased by treating it with a spreader in cultivating fruit trees, the CuSO4 and ZnSO4 were treated with a spreader by a method of spraying on the fruit trees at a specific period, that is, the early blooming period. Thus, it was shown that fruits and plants that are pollinated by self-pollen could be acquired by the treatment of a specific concentration of CuSO4 and ZnSO4 in wild-type tomato and Fuji apple without harmful effects of the medicine. From the results, it can be concluded that an inhibitor composition of a style-specific RNase of the present invention is effective in inhibition of a style-specific RNase without respect to species, and preferable concentration of CuSO4, which is treated at the early blooming period, is at 100˜700 ppm and preferable concentration of ZnSO4 is at 100˜800 ppm. Furthermore, very high pollination rate, without harmful effects of a medicine, could be achieved by spraying the inhibitor composition for gametophytic self-incompatibility of the present invention, which was mixed with the desirable amount of spreader according to the manufacturers' instruction. Among the spreaders, the spreader of hexaconazole class, siloxane class and alkylaryl polyethoxylate class is preferable to achieve high fruition rate. The preferable concentration of the inhibitor composition for gametophytic self-incompatibility of the present invention was shown in table 1. When CuSO4 is used as an effective component of the style-specific RNase inhibitor as shown in the table 1, if the concentration of CuSO4 is below 100 ppm, it is difficult to achieve a stable fruition rate over 70% because it cannot inhibit RNase activity appropriately, on the other hand, if the concentration of CuSO4 is over 700 ppm, it is not economical because it can induce harmful effects of a medicine. Furthermore, when ZnSO4 is used as an effective component of the style-specific RNase inhibitor, if the concentration of ZnSO4 is below 100 ppm, it is difficult to achieve a stable fruition rate over 70% because it cannot inhibit RNase activity appropriately, on the other hand, if the concentration of ZnSO4 is over 800 ppm, it is not economical because it can induce harmful effects of a medicine.

SMILES	Fruition rate ([1]; 1 day after full blooming)	Fruition rate ([1]; 1 day before blooming)	Fruition rate ([1]; 2 days after full blooming)	Fruition rate ([1]; 2 days before blooming)	Fruition rate ([1]; 3 days before blooming)	Fruition rate ([1]; 4 days before blooming)	Fruition rate ([1]; 5 days before blooming)	Fruition rate ([1]; 6 days before blooming)	Fruition rate ([1]; 7 days before blooming)	Fruition rate ([1]; full blooming)	Fruition rate ([2]; 1 day after full blooming)	Fruition rate ([2]; 1 day before blooming)	Fruition rate ([2]; 2 days after full blooming)	Fruition rate ([2]; 2 days before blooming)	Fruition rate ([2]; 3 days before blooming)	Fruition rate ([2]; 4 days before blooming)	Fruition rate ([2]; 5 days before blooming)	Fruition rate ([2]; full blooming)	Fruition rate ([3]; 20 ppm)	Fruition rate ([3]; 40 ppm)	further results
O=S(=O)([O-])[O-].[Cu+2] [CuSO4]	0	0	0	0	>37%	>74%	>86%	>91%	>91%	0	0	0	0	>24%	>70%	>86%	>91%	0	0%	0%	Fruition rate ([3]; 60 ppm): 11%; Fruition rate ([3]; 80 ppm): 39%; Fruition rate ([3]; 100 ppm): 70%; Fruition rate ([3]; 200 ppm): 76%; Fruition rate ([3]; 300 ppm): 88%; Fruition rate ([3]; 400 ppm): 85%; Fruition rate ([3]; 500 ppm): 77%; Fruition rate ([3]; 600 ppm): 73%; Fruition rate ([3]; 700 ppm): 73%; Fruition rate ([3]; 800 ppm): 52%; Fruition rate ([3]; 900 ppm): 31%; Fruition rate ([3]; 1000 ppm): 21%; Fruition rate ([3]; 1100 ppm): 11%; Fruition rate ([3]; 1200 ppm): 0%; Fruition rate ([3]; 1300 ppm): 0%; Fruition rate ([3]; 1400 ppm): 0%; Fruition rate ([3]; 1500 ppm): 0%; concentration in which harmful effect of a medicine occurred [3]: ≥ 800 ppm; the highest concentration not showing harmful effects of a medicine [4]: 700 ppm; the lowest concentration showing inhibiting effect [4]: 100 ppm
O=S(=O)([O-])[O-].[Zn+2] [ZnSO4]	0	0	0	0	>30%	>71%	>83%	>90%	>92%	0	0	0	0	>32%	>71%	>93%	>92%	0	0%	5%	Fruition rate ([3]; 60 ppm): 17%; Fruition rate ([3]; 80 ppm): 36%; Fruition rate ([3]; 100 ppm): 72%; Fruition rate ([3]; 200 ppm): 79%; Fruition rate ([3]; 300 ppm): 93%; Fruition rate ([3]; 400 ppm): 88%; Fruition rate ([3]; 500 ppm): 85%; Fruition rate ([3]; 600 ppm): 84%; Fruition rate ([3]; 700 ppm): 74%; Fruition rate ([3]; 800 ppm): 70%; Fruition rate ([3]; 900 ppm): 44%; Fruition rate ([3]; 1000 ppm): 27%; Fruition rate ([3]; 1100 ppm): 9%; Fruition rate ([3]; 1200 ppm): 0%; Fruition rate ([3]; 1300 ppm): 0%; Fruition rate ([3]; 1400 ppm): 0%; Fruition rate ([3]; 1500 ppm): 0%; concentration in which harmful effect of a medicine occurred [3]: ≥ 900 ppm; the highest concentration not showing harmful effects of a medicine [4]: 800 ppm; the lowest concentration showing inhibiting effect [4]: 100 ppm
